Measurements as given in the NIST ThermoML archive (doi:10.1021/je900387e).
± gives the expanded uncertainty stated by the source.

Experiment: xn = mol fraction of the nth substance listed
Conditions: Liquid, Pycnometric method

In the case of `CCCCBr` [1-bromobutane] + O=C=O, the mass density (308.2 K, 6320 kPa, x1 = 0.1495) is reported as 1011 ± 4 kg/m3, the mass density (308.2 K, 6620 kPa, x1 = 0.0989) is reported as 890 ± 4 kg/m3 and the mass density (308.2 K, 6840 kPa, x1 = 0.0989) is reported as 897 ± 4 kg/m3. The mass density (308.2 K, 6850 kPa, x1 = 0.0683) was 834 ± 4 kg/m3, the mass density (308.2 K, 6930 kPa, x1 = 0.0683) was 836 ± 4 kg/m3 and the mass density (308.2 K, 6980 kPa, x1 = 0.0683) was 838 ± 4 kg/m3. The mass density (308.2 K, 7040 kPa, x1 = 0.0989) was 903 ± 4 kg/m3, the mass density (308.2 K, 7050 kPa, x1 = 0.0683) was 842 ± 4 kg/m3 and the mass density (308.2 K, 7090 kPa, x1 = 0.0461) was 805 ± 4 kg/m3. For the same compound, the mass density (308.2 K, 7090 kPa, x1 = 0.0683) was 845 ± 4 kg/m3, the mass density (308.2 K, 7160 kPa, x1 = 0.0683) was 848 ± 4 kg/m3 and the mass density (308.2 K, 7230 kPa, x1 = 0.0461) was 811 ± 4 kg/m3. For the same compound, the mass density (308.2 K, 7240 kPa, x1 = 0.0683) was 850 ± 4 kg/m3, the mass density (308.2 K, 7350 kPa, x1 = 0.0683) was 854 ± 4 kg/m3 and the mass density (308.2 K, 7350 kPa, x1 = 0.0989) was 910 ± 4 kg/m3. The mass density (308.2 K, 7380 kPa, x1 = 0.0245) was 712 ± 4 kg/m3, the mass density (308.2 K, 7390 kPa, x1 = 0.0461) was 817 ± 4 kg/m3 and the mass density (308.2 K, 7400 kPa, x1 = 0.0245) was 711 ± 4 kg/m3. It also gave a mass density (308.2 K, 7400 kPa, x1 = 0.1495) of 1018 ± 4 kg/m3, a mass density (308.2 K, 7420 kPa, x1 = 0.0245) of 713 ± 4 kg/m3 and a mass density (308.2 K, 7440 kPa, x1 = 0.0245) of 716 ± 4 kg/m3. It also gave a mass density (308.2 K, 7450 kPa, x1 = 0.0683) of 858 ± 4 kg/m3, a mass density (308.2 K, 7480 kPa, x1 = 0.0245) of 720 ± 4 kg/m3 and a mass density (308.2 K, 7520 kPa, x1 = 0.0245) of 724 ± 4 kg/m3. For the same compound, the mass density (308.2 K, 7540 kPa, x1 = 0.0683) was 861 ± 4 kg/m3, the mass density (308.2 K, 7550 kPa, x1 = 0.0461) was 823 ± 4 kg/m3 and the mass density (308.2 K, 7590 kPa, x1 = 0.0245) was 729 ± 4 kg/m3. It also gave a mass density (308.2 K, 7640 kPa, x1 = 0.0245) of 734 ± 4 kg/m3, a mass density (308.2 K, 7660 kPa, x1 = 0.0461) of 827 ± 4 kg/m3 and a mass density (308.2 K, 7660 kPa, x1 = 0.0683) of 864 ± 4 kg/m3. For the same compound, the mass density (308.2 K, 7700 kPa, x1 = 0.0245) was 738 ± 4 kg/m3, the mass density (308.2 K, 7700 kPa, x1 = 0.0989) was 916 ± 4 kg/m3 and the mass density (308.2 K, 7750 kPa, x1 = 0.0461) was 830 ± 4 kg/m3. It also gave a mass density (308.2 K, 7770 kPa, x1 = 0.0245) of 743 ± 4 kg/m3, a mass density (308.2 K, 7780 kPa, x1 = 0.0683) of 867 ± 4 kg/m3 and a mass density (308.2 K, 7830 kPa, x1 = 0.0245) of 747 ± 4 kg/m3. For the same compound, the mass density (308.2 K, 7850 kPa, x1 = 0.0461) was 833 ± 4 kg/m3, the mass density (308.2 K, 7920 kPa, x1 = 0.0245) was 752 ± 4 kg/m3 and the mass density (308.2 K, 7950 kPa, x1 = 0.0461) was 836 ± 4 kg/m3. For the same compound, the mass density (308.2 K, 8010 kPa, x1 = 0.0245) was 757 ± 4 kg/m3, the mass density (308.2 K, 8060 kPa, x1 = 0.0461) was 839 ± 4 kg/m3 and the mass density (308.2 K, 8090 kPa, x1 = 0.0245) was 762 ± 4 kg/m3. The mass density (308.2 K, 8120 kPa, x1 = 0.0989) was 924 ± 4 kg/m3, the mass density (308.2 K, 8190 kPa, x1 = 0.0461) was 843 ± 4 kg/m3 and the mass density (308.2 K, 8190 kPa, x1 = 0.1495) was 1026 ± 4 kg/m3. It also gave a mass density (308.2 K, 8200 kPa, x1 = 0.0245) of 767 ± 4 kg/m3, a mass density (308.2 K, 8300 kPa, x1 = 0.0245) of 772 ± 4 kg/m3 and a mass density (308.2 K, 8420 kPa, x1 = 0.0245) of 777 ± 4 kg/m3. The mass density (308.2 K, 8610 kPa, x1 = 0.0989) was 930 ± 4 kg/m3, the mass density (308.2 K, 8620 kPa, x1 = 0.0245) was 785 ± 4 kg/m3 and the mass density (308.2 K, 8840 kPa, x1 = 0.0245) was 793 ± 4 kg/m3. It also gave a mass density (308.2 K, 9040 kPa, x1 = 0.1495) of 1033 ± 4 kg/m3, a mass density (308.2 K, 9100 kPa, x1 = 0.0245) of 801 ± 4 kg/m3 and a mass density (308.2 K, 9190 kPa, x1 = 0.0989) of 938 ± 4 kg/m3. For the same compound, the mass density (308.2 K, 9370 kPa, x1 = 0.0245) was 809 ± 4 kg/m3, the mass density (308.2 K, 9680 kPa, x1 = 0.0245) was 818 ± 4 kg/m3 and the mass density (308.2 K, 9820 kPa, x1 = 0.0989) was 944 ± 4 kg/m3. For the same compound, the mass density (308.2 K, 9960 kPa, x1 = 0.1495) was 1041 ± 4 kg/m3, the mass density (308.2 K, 10040 kPa, x1 = 0.0245) was 827 ± 4 kg/m3 and the mass density (308.2 K, 10130 kPa, x1 = 0.0989) was 948 ± 4 kg/m3. For the same compound, the mass density (308.2 K, 10420 kPa, x1 = 0.0245) was 835 ± 4 kg/m3, the mass density (308.2 K, 10860 kPa, x1 = 0.0245) was 844 ± 4 kg/m3 and the mass density (308.2 K, 10920 kPa, x1 = 0.1495) was 1048 ± 4 kg/m3. It also gave a mass density (308.2 K, 11350 kPa, x1 = 0.0245) of 853 ± 4 kg/m3, a mass density (308.2 K, 11370 kPa, x1 = 0.1495) of 1051 ± 4 kg/m3 and a mass density (308.2 K, 11880 kPa, x1 = 0.0245) of 863 ± 4 kg/m3. It also gave a mass density (308.2 K, 11910 kPa, x1 = 0.1495) of 1055 ± 4 kg/m3, a mass density (308.2 K, 12480 kPa, x1 = 0.0245) of 873 ± 4 kg/m3 and a mass density (308.2 K, 12510 kPa, x1 = 0.1495) of 1060 ± 4 kg/m3. The mass density (308.2 K, 13080 kPa, x1 = 0.1495) was 1063 ± 4 kg/m3, the mass density (308.2 K, 13130 kPa, x1 = 0.0245) was 882 ± 4 kg/m3 and the mass density (308.2 K, 13590 kPa, x1 = 0.0245) was 889 ± 4 kg/m3. It also gave a mass density (308.2 K, 13640 kPa, x1 = 0.1495) of 1067 ± 4 kg/m3, a mass density (308.2 K, 14140 kPa, x1 = 0.0245) of 896 ± 4 kg/m3 and a mass density (308.2 K, 14210 kPa, x1 = 0.1495) of 1071 ± 4 kg/m3. The mass density (308.2 K, 14290 kPa, x1 = 0.0245) was 899 ± 4 kg/m3, the mass density (308.2 K, 14850 kPa, x1 = 0.1495) was 1075 ± 4 kg/m3 and the mass density (308.2 K, 15150 kPa, x1 = 0.1495) was 1077 ± 4 kg/m3. It also gave a mass density (313.1 K, 6900 kPa, x1 = 0.1495) of 986 ± 4 kg/m3, a mass density (313.1 K, 7230 kPa, x1 = 0.0989) of 875 ± 4 kg/m3 and a mass density (313.1 K, 7250 kPa, x1 = 0.1495) of 991 ± 4 kg/m3. It also gave a mass density (313.1 K, 7480 kPa, x1 = 0.0683) of 811 ± 4 kg/m3, a mass density (313.1 K, 7510 kPa, x1 = 0.1495) of 994 ± 4 kg/m3 and a mass density (313.1 K, 7520 kPa, x1 = 0.0989) of 881 ± 4 kg/m3. It also gave a mass density (313.1 K, 7590 kPa, x1 = 0.0683) of 814 ± 4 kg/m3, a mass density (313.1 K, 7670 kPa, x1 = 0.0683) of 817 ± 4 kg/m3 and a mass density (313.1 K, 7680 kPa, x1 = 0.0461) of 756 ± 4 kg/m3. The mass density (313.1 K, 7730 kPa, x1 = 0.0461) was 758 ± 4 kg/m3, the mass density (313.1 K, 7760 kPa, x1 = 0.0683) was 820 ± 4 kg/m3 and the mass density (313.1 K, 7770 kPa, x1 = 0.1495) was 997 ± 4 kg/m3. It also gave a mass density (313.1 K, 7820 kPa, x1 = 0.0461) of 764 ± 4 kg/m3, a mass density (313.1 K, 7830 kPa, x1 = 0.0989) of 882 ± 4 kg/m3 and a mass density (313.1 K, 7860 kPa, x1 = 0.0683) of 823 ± 4 kg/m3.
